According to publication PMC6877086, “Novel charged sodium and calcium channel inhibitor active against neurogenic inflammation” (eLife, 2019):
Structures can show the parent of a compound that is named as a salt. Blank lines part the entries; values can stand above or below the compound they belong to.

Key:
Format in all cases: cell-based
Nav1.7 [1] = target: T1, Nav1.7 (Homo sapiens, UniProt Q15858); test: whole-cell patch clamp, external application; KI estimated from shift in channel availability
T1 construct: gene SCN9A; human Nav1.7 stably expressed in HEK cell line
T1 sequence (Q15858 whole entry): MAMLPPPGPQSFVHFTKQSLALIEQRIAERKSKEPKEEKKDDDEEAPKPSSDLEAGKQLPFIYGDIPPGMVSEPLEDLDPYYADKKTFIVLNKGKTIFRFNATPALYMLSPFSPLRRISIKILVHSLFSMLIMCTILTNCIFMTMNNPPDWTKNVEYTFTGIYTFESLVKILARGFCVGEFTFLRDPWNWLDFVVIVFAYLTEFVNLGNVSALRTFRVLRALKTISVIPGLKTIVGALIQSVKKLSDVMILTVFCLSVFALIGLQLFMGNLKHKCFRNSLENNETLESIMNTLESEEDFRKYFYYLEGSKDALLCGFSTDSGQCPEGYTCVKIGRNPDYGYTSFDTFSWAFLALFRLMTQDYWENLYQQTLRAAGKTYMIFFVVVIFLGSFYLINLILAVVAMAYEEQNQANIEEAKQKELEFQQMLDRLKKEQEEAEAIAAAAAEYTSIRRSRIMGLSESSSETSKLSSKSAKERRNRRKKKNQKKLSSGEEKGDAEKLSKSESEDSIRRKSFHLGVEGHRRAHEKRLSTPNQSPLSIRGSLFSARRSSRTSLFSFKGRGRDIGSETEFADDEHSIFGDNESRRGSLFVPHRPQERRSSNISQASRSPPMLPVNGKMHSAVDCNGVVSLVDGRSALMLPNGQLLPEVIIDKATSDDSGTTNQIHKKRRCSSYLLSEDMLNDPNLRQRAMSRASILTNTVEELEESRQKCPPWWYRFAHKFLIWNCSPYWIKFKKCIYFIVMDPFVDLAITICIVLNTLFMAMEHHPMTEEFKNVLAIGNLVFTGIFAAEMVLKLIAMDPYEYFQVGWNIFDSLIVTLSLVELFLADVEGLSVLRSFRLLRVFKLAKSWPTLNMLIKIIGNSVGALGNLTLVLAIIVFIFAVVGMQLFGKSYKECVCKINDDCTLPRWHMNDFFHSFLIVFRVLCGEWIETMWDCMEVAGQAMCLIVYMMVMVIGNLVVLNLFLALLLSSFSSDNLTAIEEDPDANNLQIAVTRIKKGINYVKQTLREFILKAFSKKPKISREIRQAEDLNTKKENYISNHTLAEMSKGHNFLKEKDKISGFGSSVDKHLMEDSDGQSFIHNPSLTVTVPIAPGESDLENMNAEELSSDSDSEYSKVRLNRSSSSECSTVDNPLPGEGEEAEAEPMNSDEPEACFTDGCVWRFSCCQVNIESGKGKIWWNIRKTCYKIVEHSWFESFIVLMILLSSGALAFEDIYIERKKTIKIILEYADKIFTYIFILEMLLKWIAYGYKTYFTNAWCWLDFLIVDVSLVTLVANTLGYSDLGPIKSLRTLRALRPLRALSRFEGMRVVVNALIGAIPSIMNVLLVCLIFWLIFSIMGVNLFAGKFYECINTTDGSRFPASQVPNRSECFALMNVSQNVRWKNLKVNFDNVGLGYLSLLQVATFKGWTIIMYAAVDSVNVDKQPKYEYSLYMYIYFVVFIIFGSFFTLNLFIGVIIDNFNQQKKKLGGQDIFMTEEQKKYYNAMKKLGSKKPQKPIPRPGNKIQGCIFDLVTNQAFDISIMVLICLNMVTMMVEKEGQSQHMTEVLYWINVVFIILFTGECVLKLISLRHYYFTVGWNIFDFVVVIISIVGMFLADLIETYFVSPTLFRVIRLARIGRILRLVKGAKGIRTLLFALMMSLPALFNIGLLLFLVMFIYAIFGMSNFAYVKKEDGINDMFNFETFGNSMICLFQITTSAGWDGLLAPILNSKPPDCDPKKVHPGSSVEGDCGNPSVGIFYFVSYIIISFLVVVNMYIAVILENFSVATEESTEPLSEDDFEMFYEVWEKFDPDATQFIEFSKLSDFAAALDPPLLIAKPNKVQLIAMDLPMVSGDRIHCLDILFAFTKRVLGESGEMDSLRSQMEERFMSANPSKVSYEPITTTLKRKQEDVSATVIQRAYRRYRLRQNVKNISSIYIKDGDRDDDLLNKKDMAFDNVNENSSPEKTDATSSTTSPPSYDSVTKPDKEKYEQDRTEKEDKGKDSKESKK

Cav2.2 [2] = target: T2, Cav2.2 (Rattus norvegicus, UniProt Q02294); test: whole-cell patch clamp, Ba2+ current, external and internal application
T2 construct: gene Cacna1b; rat Cav2.2 stably expressed with β3 and α2δ−1 subunits in tsA201 cell line; with β3 subunit and α2δ−1 subunit

Cav2.2 [3] = target: T2, Cav2.2; test: whole-cell patch clamp, Ba2+ current
Nav1.7 [4] = target: T1, Nav1.7; test: whole-cell patch clamp, use-dependent inhibition at […] Hz

- Kd (Nav1.7 [1]): 710 nM
SMILES: COc1ccc(CNC(=O)C(CSCC2CCCC2)[N+](C)(C)CCC(C)(C)C)cc1 (centres unmarked) [CNCB-2, [2-Cyclopentylmethylsulfanyl-1-(4-methoxy-benzylcarbamoyl)-ethyl]−(3,3-dimethyl-butyl)-dimethyl-ammonium, chloride salt]
- whole-cell patch clamp, Ba2+ current, external and internal application (Cav2.2 [2]): current reduced to 5 ± 2% of control by 100

- inhibition at 10 µM (Cav2.2 [3]): ~60%
SMILES: COc1ccc(CNC(=O)C(CSCC2CCCC2)NCCC(C)(C)C)cc1 (centres unmarked) [NNCB-2, 3-Cyclopentylmethylsulfanyl-2-(3,3-dimethyl-butylamino)-N-(4-methoxy-benzyl)-propionamide]

SMILES: CCCCN1CCCCC1C(=O)Nc1c(C)cccc1C (centres unmarked) [bupivacaine]
- whole-cell patch clamp, use-dependent inhibition at 10 Hz (Nav1.7 [4]): current reduced to 22 ± 4% (no drug 77 ± 3%) by 10

SMILES: CCN(CC)CC(=O)Nc1c(C)cccc1C [lidocaine]
- whole-cell patch clamp, use-dependent inhibition at 10 Hz (Nav1.7 [4]): current reduced to 57 ± 7% of control (no drug 77 ± 3%) by 30
